# From patent publication US20160264593A1 (priority 2013, published 2016)
# Assay: Pharmacokinetic study of 157 (and metabolite endothal) in SD rats, iv and po; plasma, liver, brain
# Type: in vivo
# Conditions: for endothal detectable in brain samples: after single iv 157 at 1.5 mg/kg; for Cmax: female, rat, in vivo, iv
# Description: The blood, liver and brain tissue samples were collected at predetermined times from rats. […] Compound were diluted shortly before use in 4% sodium bicarbonate for sterile injection (this is the standard pediatric solution of NaHCO3 with a pH of about 8.5).
# Compound 153 was freshly prepared by diluting the drugs shortly before use in 4% sodium bicarbonate for sterile injection (this is the standard pediatric solution of NaHCO3 with a pH of about 8.5). The final concentrations of 153 solutions were 0.25 mg/mL. The 153 solutions were administered via iv or po route at dose volume of 5 ml/kg according to the latest body weight. Compound 157 was freshly prepared by diluting the drugs shortly before use in 4% sodium bicarbonate for sterile injection (this is the standard pediatric solution of NaHCO3 with a pH of about 8.5). The final concentrations of […] solutions were 0.3 mg/mL. The 157 solutions were administered via iv or po route at dose volume of 5 ml/kg according to the latest body weight.
# Twelve (12) female SD rats per group were dosed by iv with 153 or 157. The rats were fasted overnight prior to dosing, with free access to water. Foods were withheld for 2 hours post-dose. Blood, liver and brain tissue samples in two animals each group were collected at each time point, within 10% of the scheduled time for each time point. Two extra animals were used for analytic method development.
# Blood (>0.3 mL) were collected via aorta abdominalis in anaesthetic animals into tubes containing heparin at 15 min, 1, 2, 6, 10 and 24 hours after iv administration. Liver and brain tissues were collected immediately after animal death. The liver and brain tissues were excised and rinsed with cold saline to avoid blood residual. Upon collection, each sample was placed on ice and the blood samples were subsequently centrifuged (4° C., 11000 rpm, 5 min) to separate plasma. The obtained plasma, liver and brain tissue samples were stored at −70° C. until LC-MS/MS analysis.
# Two (2) female SD rats per group were dosed by po with 153 or 157. The rats were fasted overnight prior to dosing, with free access to water. Foods were withheld for 2 hours post-dose. Blood samples (>0.3 mL) were collected via aorta abdominalis in anaesthetic animals into tubes containing heparin at 30 min, 1, 2, 6, 10 and 24 hours after po administration.
# To each sample, 30 μL IS-D (for blank samples, 20 μL acetonitrile:water (1:1) was added) and 300 μl acetonitrile was added. The sample mixture was vortexed for approximately 3 min. After centrifugation at 10000 rpm for 5 min at 4° C., 100 μL of the upper layer was transferred to a new tube and added 200 μL 0.4% formic acid in water (pH6.0). The mixture was vortexed for approximately 3 min before injected onto the LC/MS/MS system for analysis.
# On the day of the assay, the frozen liver and brain samples were thawed unassisted at room temperature. An about 200 mg weighed sample of each thawed tissue was placed into a plastic tube with water (0.6 mL) to facilitate homogenization. Tissue processing was conducted using a homogenizer for approximately 1 min, 100 μl homogenate was transferred into a fresh Eppendorf tube. To each tube, 50 μL IS-D was added and mixed. Then 500 μl acetonitrile was added and the sample mixture was vortexed for approximately 3 min. After centrifugation at 10000 rpm for 5 min at 4° C., 100 μL of the upper layer was transferred to a new tube and evaporate the supernatant to dryness at 35° C. Reconstitute the residue with 200 μL of 0.4% formic acid in water (pH 6.0), and vortex for 3 min, submit for LC-MS/MS analysis.
# Frozen unknown plasma samples were completely thawed at room temperature and vortexed thoroughly. With a pipette, 50 μL of plasma was transferred into a 2.0 mL Eppendorf tube. 50 μL of 0.1N HCl and 800 μL ethyl acetate were added into each sample. The sample mixture was vortexed for approximately 3 min.
smiles,measurement,setting,value
"O=C(O)C1C2CCC(O2)C1C(=O)O (stereo not shown) [Endothal, 7-oxabicyclo[2.2.1]heptane-2,3-dicarboxylic acid]",Endothal plasma concentration,"after iv 157, 10 hr, Rat 1",BLQ
same,Endothal plasma concentration,"after iv 157, 10 hr, Rat 2",BLQ
same,Endothal plasma concentration,"after iv 157, 24 hr, Rat 1",BLQ
same,Endothal plasma concentration,"after iv 157, 24 hr, Rat 2",BLQ
same,Endothal plasma concentration,"after po 157, 10 hr, Rat 1",BLQ
same,Endothal plasma concentration,"after po 157, 10 hr, Rat 2",BLQ
same,endothal detectable in brain samples,1.5 mg/kg,undetectable
same,endothal detectable in brain samples,"listed as endothal, 1.5 mg/kg",not detectable
same,Cmax,"SD, 1.5 mg/kg",3720 ng/g
same,Cmax,Sprague-Dawley (SD),3720 ng/g
